Experimental data taken from ChEMBL document CHEMBL1201862, “PubChem BioAssay data set” (2004).
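Exposure lasted 48 hours, with cells grown in 96-well plates and compounds tested at five concentrations. GI50: concentration for 50% inhibition of growth.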 The source made the active and inactive calls. Cut-off read from the data, not from the text of the source: active = GI50 up to about 1.1 µM and inactive = higher.

Assays:
Assay in all cases: NCI-60 cell line screen, 48 h
[1] = test system: A498
[2] = test system: EKVX
[3] = test system: HCT-116
[4] = test system: HOP-62
[5] = test system: IGROV-1
[6] = test system: LOX IMVI
[7] = test system: MOLT-4
[8] = test system: Malme-3M
[9] = test system: NCI-H23
[10] = test system: NCI-H522
[11] = test system: RPMI-8226
[12] = test system: SF-268
[13] = test system: SK-MEL-5
[14] = test system: SK-OV-3
[15] = test system: SR
[16] = test system: SW-620
[17] = test system: UACC-257
[18] = test system: UO-31
[19] = test system: NCI/ADR-RES

Measured: GI50

Cc1ccc([N+](=O)[O-])cc1NC(=O)/C(CC(=O)c1sc(C(N)=S)nc1C)=N\N
inactive: [1] > 100 µM | [2] 65.3 µM | [3] 71 µM | [4] > 100 µM | [5] 30.6 µM | [6] > 100 µM | [7] 68.5 µM | [8] > 100 µM | [9] 31.7 µM | [10] 20.9 µM | [11] > 100 µM | [12] > 100 µM | [13] 90.6 µM | [14] 44.1 µM | [15] 88.9 µM | [16] > 100 µM | [17] > 100 µM | [18] 48.1 µM

CCOC(=O)c1[nH]c2cc(OC)c(OC)cc2c1CN(C)C
inactive: [1] > 100 µM | [2] > 100 µM | [3] > 100 µM | [5] > 100 µM | [6] > 100 µM | [7] > 100 µM | [8] > 100 µM | [9] > 100 µM | [11] > 100 µM | [12] > 100 µM | [13] > 100 µM | [14] > 100 µM | [15] > 100 µM | [16] > 100 µM | [17] > 100 µM | [18] > 100 µM

C/C(CC(=O)NC1=CC=C(NC(=O)C/C(C)=N\Nc2ccccc2)CC1)=N/Nc1ccccc1
inactive: [1] > 100 µM | [2] > 100 µM | [3] > 100 µM | [4] > 100 µM | [5] > 100 µM | [6] 70.8 µM | [7] > 100 µM | [8] > 100 µM | [9] > 100 µM | [10] 72.6 µM | [11] > 100 µM | [12] > 100 µM | [13] > 100 µM | [14] > 100 µM | [15] 37.8 µM | [17] > 100 µM | [18] > 100 µM

COc1cc(/C=C2/SC(c3ccccc3)N(c3ccccc3Cl)C2=O)cc(OC)c1OC (configuration not stated)
inactive: [1] 87.3 µM | [2] 44.1 µM | [3] 23.7 µM | [4] 33.6 µM | [6] 17.6 µM | [7] 28.6 µM | [8] 23.4 µM | [9] 22.8 µM | [10] 14.9 µM | [19] 25.9 µM | [11] 21.7 µM | [12] 41.1 µM | [13] 15.4 µM | [14] 19.8 µM | [15] 23.8 µM | [16] 37.8 µM | [17] 42.2 µM | [18] 35.4 µM

CC(=O)c1ccc(NC(=O)C(=O)Nn2c(S)nc3ccccc3c2=O)cc1
inactive: [1] > 100 µM | [2] > 100 µM | [3] > 100 µM | [4] > 100 µM | [5] > 100 µM | [6] > 100 µM | [7] > 100 µM | [8] > 100 µM | [9] > 100 µM | [10] > 100 µM | [11] > 100 µM | [12] > 100 µM | [13] > 100 µM | [14] > 100 µM | [15] > 100 µM | [16] > 100 µM | [17] > 100 µM | [18] > 100 µM

O=C(/C=C/c1ccccc1)NC1C=Nc2ccc([N+](=O)[O-])cc2NC1=O (configuration not stated)
inactive: [1] > 100 µM | [2] > 100 µM | [3] 96.6 µM | [4] 84.3 µM | [5] > 100 µM | [6] 22.7 µM | [7] 53.8 µM | [8] > 100 µM | [9] 76.4 µM | [10] 6.01 µM | [12] > 100 µM | [13] > 100 µM | [14] > 100 µM | [15] > 100 µM | [16] > 100 µM | [17] > 100 µM | [18] 48.9 µM

C=C[C@]1(C)CCC2=C(CCC3C2(C)CCC[C@]3(C)CO)C1 (some centres not stated)
inactive: [1] > 100 µM | [2] 51.9 µM | [3] 35.6 µM | [4] > 100 µM | [5] > 100 µM | [6] 27.7 µM | [7] 24.3 µM | [8] > 100 µM | [9] 50.4 µM | [10] 23 µM | [11] 27.2 µM | [12] 33.4 µM | [13] 67.1 µM | [14] > 100 µM | [15] 26.8 µM | [16] 63.8 µM | [17] 51.5 µM | [18] 74 µM

O=C(Cc1ccccc1)N/N=C(/c1nc2ccc([N+](=O)[O-])cc2nc1O)C(O)c1ccc(C(O)/C(=N/NC(=O)Cc2ccccc2)c2nc3ccc([N+](=O)[O-])cc3nc2O)cc1 (configuration not stated)
inactive: [1] > 100 µM | [2] > 100 µM | [3] 48.8 µM | [4] 44.6 µM | [5] > 100 µM | [6] 12.1 µM | [8] > 100 µM | [9] > 100 µM | [10] 3.3 µM | [11] 21 µM | [12] 20.2 µM | [14] > 100 µM | [15] > 10 µM | [16] 39.4 µM | [17] 62.4 µM
